The record followed here is patent US20240217951A1, “PCSK9 INHIBITORS AND METHODS OF USE THEREOF” (AstraZeneca AB, priority 2022, published 2024).

Assay [1] addresses PCSK9 (Homo sapiens, UniProt Q8NBP7, G670E/V474I). The assay can be described thus: biochemical.
Assay [2] deals with T1, potassium ion channel hERG (human Ether-á-go-go-Related Gene) (Homo sapiens, UniProt Q12809).
T1 construct: expressed in transfected cells; host or cells: Chinese hamster ovary K1 (CHO)
The assay is described as follows: Assay 5 - hERG assay (SyncroPatch 384PE patch clamp, CHO cells). The format is cell-based. The following applies: geometric mean; CHO cells over-expressing hERG; read-out: Assay 5 (hERG Hu CHO IF EPh CR-Syncro) GMean IC50. The procedure:
Assay 5—hERG Assay (Human Ether-á-go-go-Related Gene)
This assay (human Ether-á-go-go-Related Gene) measures activity of the compounds at the potassium ion channel hERG (human Ether-á-go-go-Related Gene).
Experiments were performed on the SyncroPatch 384PE high throughput patch clamp platform at room temperature and medium resistance chips with 4 patch holes per site. Chinese hamster ovary K1 (CHO) cell lines over-expressing the ion channel of choice (hERG) were used in assay-ready format and kept in liquid nitrogen or were used from live culture. Cells were either thawed and diluted in HBSS or were detached from flasks and resuspended in HBSS. HBSS comprised 140 mM NaCl, 4 mM KCl, 10 mM HEPES and 5 mM Glucose (pH7.4). The internal patch clamp solution was KF 120 mM, KCl 20 mM, HEPES 10 mM, EGTA 10 mM, and 25 PM Escin (pH 7.2). After the sealing process was complete, the external solution was exchanged for external patch clamp solution comprising NaCl 80 mM, KCl 4 mM, HEPES 10 mM, CaCl2 2 mM, MgCl2 1 mM, glucose 5 mM, and NMDG 60 mM (pH 7.4). All solutions were stored at room temperature, except Escin, which was stored at 4° C. All test compounds were dispensed in greiner-bio 384 well plates and tested in a 6 point cumulative assay (final DMSO concentration 0.33%). Only wells that passed previously agreed acceptance criteria for this platform were used in this analysis (30 MegaOhm seal resistance, Z prime >0.4 and current size >0.2 nA).
A general note: Block of hERG is tested as a sign of cardiac risk.

Assay [3] addresses GSK3β (Glycogen synthase kinase-3 beta) (Homo sapiens, UniProt P49841). The assay is described as follows: Assay 6 - GSK3β assay (ThermoFisher Z-Lyte). The format is biochemical. The settings on record: geometric mean; ATP Conc: 10 μM; read-out: Assay 6 (GSK3β FRET-Z-Lyte CR) GMean IC50 (μM) ATP Conc: 10. The protocol:
Assay 6—GSK3β Assay (ThermoFisher Assay)
This assay measures the activity of the compounds at GSK3β (Glycogen synthase kinase-3 beta).
The test compounds were screened in 1% DMSO (final) in the well. For 10 point titrations, 3-fold serial dilutions are conducted from the starting concentration of 10 μM.
Bar-coded Corning, low volume NBS, black 384-well plate • 1. 2.5 μL—4× Test Compound or 100 nL 100× plus 2.4 μL kinase buffer • 2. 5 μL—2× Peptide/Kinase Mixture • 3. 2.5 μL—4×ATP Solution • 4. 30-second plate shake • 5. 60-minute Kinase Reaction incubation at room temperature • 6. 5 μL—Development Reagent Solution • 7. 30-second plate shake • 8. 60-minute Development Reaction incubation at room temperature • 9. Read on fluorescence plate reader and analyse the data
In step 2, the 2×GSK3β (GSK3 beta)/Ser/Thr (Glycogen synthase kinase-3 beta/Serine/Threonine) 09 mixture is prepared in 50 mM HEPES (4-(2-hydroxyethyl)-1-piperazineethanesulfonic acid) pH 7.5, 0.01% BRIJ-35, 10 mM MgCl2, 1 mM EGTA (egtazic acid). The final 10 μL Kinase Reaction consists of 0.22-0.92 ng GSK3β (GSK3 beta) and 2 μM Ser/Thr 09 in 50 mM HEPES pH 7.5, 0.01% BRIJ-35, 10 mM MgCl2, 1 mM EGTA.
In step 3 the ATP Solution is diluted to a 4× working concentration in Kinase Buffer (50 mM HEPES pH 7.5, 0.01% BRIJ-35, 10 mM MgCl2, 1 mM EGTA).
In Step 6 the Development Reagent is diluted 1:512 in Development Buffer (10× Novel PKC Lipid Mix: 2 mg/mL Phosphatidyl Serine, 0.2 mg/mL DAG in 20 mM HEPES, pH 7.4, 0.3% CHAPS).
SelectScreen® Kinase Profiling Service uses XLfit from IDBS. The dose response curve is curve fit to model number 205 (sigmoidal dose-response model).

T1 sequence (Q12809 whole entry): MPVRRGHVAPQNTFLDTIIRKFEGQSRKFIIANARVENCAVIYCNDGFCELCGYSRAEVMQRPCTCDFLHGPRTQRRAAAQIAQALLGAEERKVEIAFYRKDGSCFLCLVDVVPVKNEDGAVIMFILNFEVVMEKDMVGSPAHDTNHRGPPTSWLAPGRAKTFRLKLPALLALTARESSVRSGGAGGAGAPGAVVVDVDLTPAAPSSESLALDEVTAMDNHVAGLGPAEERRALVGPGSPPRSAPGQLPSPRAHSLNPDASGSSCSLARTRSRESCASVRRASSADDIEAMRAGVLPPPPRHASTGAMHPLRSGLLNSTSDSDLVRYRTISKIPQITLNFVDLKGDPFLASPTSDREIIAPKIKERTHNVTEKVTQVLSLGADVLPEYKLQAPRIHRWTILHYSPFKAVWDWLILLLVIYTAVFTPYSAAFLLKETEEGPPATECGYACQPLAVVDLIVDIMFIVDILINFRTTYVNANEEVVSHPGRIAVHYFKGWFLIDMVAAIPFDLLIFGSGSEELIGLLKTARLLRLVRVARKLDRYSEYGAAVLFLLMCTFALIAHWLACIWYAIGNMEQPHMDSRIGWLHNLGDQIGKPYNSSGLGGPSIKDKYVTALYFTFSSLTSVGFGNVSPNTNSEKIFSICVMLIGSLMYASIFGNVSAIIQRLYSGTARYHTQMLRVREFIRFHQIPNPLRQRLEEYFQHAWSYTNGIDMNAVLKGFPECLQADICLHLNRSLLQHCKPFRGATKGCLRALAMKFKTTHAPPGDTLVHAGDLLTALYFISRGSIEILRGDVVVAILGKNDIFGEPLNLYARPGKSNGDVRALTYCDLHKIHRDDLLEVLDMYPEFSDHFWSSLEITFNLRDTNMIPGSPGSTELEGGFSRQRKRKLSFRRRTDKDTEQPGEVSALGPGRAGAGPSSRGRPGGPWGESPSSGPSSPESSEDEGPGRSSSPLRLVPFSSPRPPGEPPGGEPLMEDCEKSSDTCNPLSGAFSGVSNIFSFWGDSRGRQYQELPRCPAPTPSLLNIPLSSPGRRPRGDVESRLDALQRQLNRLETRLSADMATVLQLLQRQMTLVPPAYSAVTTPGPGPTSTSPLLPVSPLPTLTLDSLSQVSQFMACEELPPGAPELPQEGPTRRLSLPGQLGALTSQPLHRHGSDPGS
Chain of GSK3β (Glycogen synthase kinase-3 beta) (P49841 whole entry): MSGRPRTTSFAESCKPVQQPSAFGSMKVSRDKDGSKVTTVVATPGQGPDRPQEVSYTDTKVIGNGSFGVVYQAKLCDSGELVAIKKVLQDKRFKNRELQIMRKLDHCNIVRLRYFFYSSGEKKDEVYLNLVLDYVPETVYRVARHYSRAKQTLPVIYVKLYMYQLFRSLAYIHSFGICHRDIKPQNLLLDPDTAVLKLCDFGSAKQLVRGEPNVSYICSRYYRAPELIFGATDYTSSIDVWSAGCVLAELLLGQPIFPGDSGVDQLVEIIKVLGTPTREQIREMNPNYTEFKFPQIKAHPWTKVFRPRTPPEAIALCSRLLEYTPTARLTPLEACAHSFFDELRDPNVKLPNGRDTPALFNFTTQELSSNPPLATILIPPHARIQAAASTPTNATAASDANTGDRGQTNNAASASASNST
Chain of PCSK9 (Q8NBP7 with tags, fused parts or gaps V474I/G670E): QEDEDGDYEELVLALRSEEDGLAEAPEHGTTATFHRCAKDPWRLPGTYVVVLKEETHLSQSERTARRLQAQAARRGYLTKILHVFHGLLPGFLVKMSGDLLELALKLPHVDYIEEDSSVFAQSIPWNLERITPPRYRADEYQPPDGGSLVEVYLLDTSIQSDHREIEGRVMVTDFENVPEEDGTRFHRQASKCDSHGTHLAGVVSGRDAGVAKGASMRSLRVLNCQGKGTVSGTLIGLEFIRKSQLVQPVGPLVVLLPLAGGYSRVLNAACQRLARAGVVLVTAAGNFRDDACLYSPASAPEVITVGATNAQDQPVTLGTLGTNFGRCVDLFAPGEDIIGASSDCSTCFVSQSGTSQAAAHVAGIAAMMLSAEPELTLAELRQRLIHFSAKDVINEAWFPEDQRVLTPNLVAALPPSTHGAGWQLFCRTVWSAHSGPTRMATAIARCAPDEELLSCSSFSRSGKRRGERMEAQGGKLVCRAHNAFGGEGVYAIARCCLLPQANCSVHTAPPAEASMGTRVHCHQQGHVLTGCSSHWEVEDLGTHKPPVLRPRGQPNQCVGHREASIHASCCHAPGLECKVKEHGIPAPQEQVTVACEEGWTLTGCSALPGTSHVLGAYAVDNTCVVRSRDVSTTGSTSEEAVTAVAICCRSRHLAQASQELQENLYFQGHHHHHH

Consider `O=C1CC[C@H](CO)N1c1ccc(N[C@H]2CC[C@H](Nc3cnc(OC(F)F)cn3)C2)nc1` [Example 77, (R)-1-(6-(((1S,3S)-3-((5-(Difluoromethoxy)pyrazin-2-yl)amino)cyclopentyl)amino)pyridin-3-yl)-5-(hydroxymethyl)pyrrolidin-2-one], for which the IC50 (usually the midpoint of a concentration-inhibition curve) in assay [1] was 1.53 µM; in assay [2] it was greater than 40 µM; in assay [3] it was greater than 10 µM.
With `O=C1[C@@H]2OCC[C@@H]2CCN1c1ccc(N[C@H]2CC[C@H](Nc3cnc(OC(F)F)cn3)C2)nc1` [Example 78, (3aS,7aR)-6-(6-(((1S,3S)-3-((5-(Difluoromethoxy)pyrazin-2-yl)amino)cyclopentyl)amino)pyridin-3-yl)hexahydrofuro[2,3-c]pyridin-7(4H)-one], the IC50 in assay [1] is 1.63 µM; in assay [2], greater than 40 µM; in assay [3], greater than 10 µM.
As to `C[C@@]12C[C@]1(C)C(=O)N(c1ccc(N[C@H]3CC[C@H](Nc4cnc(OC(F)F)cn4)C3)nc1)C2=O` [Example 80, (cis)-3-(6-(((1S,3S)-3-((5-(Difluoromethoxy)pyrazin-2-yl)amino)cyclopentyl)amino)pyridin-3-yl)-1,5-dimethyl-3-azabicyclo[3.1.0]hexane-2,4-dione], the figures for the IC50 in assay [1], in assay [2] and in assay [3] were 1.03 µM, greater than 40 µM and greater than 10 µM, respectively.
`O=c1ccc(Cl)cn1-c1ccc(N[C@H]2CC[C@H](Nc3cnc(OC(F)F)cn3)C2)nc1` [Example 83, 5-Chloro-6′-(((1S,3S)-3-((5-(difluoromethoxy)pyrazin-2-yl)amino)cyclopentyl)amino)-2H-[1,3′-bipyridin]-2-one]: the IC50 was 0.044 µM in assay [1], 5 µM in assay [2] and greater than 10 µM in assay [3].
Regarding `N#Cc1ccc(=O)n(-c2ccc(N[C@H]3CC[C@H](Nc4cnc(OC(F)F)cn4)C3)nc2)c1` [Example 89, 6′-(((1S,3S)-3-((5-(Difluoromethoxy)pyrazin-2-yl)amino)cyclopentyl)amino)-2-oxo-2H-[1,3′-bipyridine]-5-carbonitrile], the IC50 is 0.121 µM in assay [1], 6.8 µM in assay [2] and greater than 10 µM in assay [3].
With `N#Cc1cccn(-c2ccc(N[C@H]3CC[C@H](Nc4cnc(OC(F)F)cn4)C3)nc2)c1=O` [Example 90, 6′-(((1S,3S)-3-((5-(Difluoromethoxy)pyrazin-2-yl)amino)cyclopentyl)amino)-2-oxo-2H-[1,3′-bipyridine]-3-carbonitrile], the IC50 was 0.015 µM in assay [1], 11.7 µM in assay [2] and greater than 10 µM in assay [3].
Consider `Cc1nc(N[C@H]2CC[C@H](Nc3ccc(-n4ccccc4=O)cn3)C2)cnc1OC(F)F` [Example 91, 6′-(((1S,3S)-3-((5-(Difluoromethoxy)-6-methylpyrazin-2-yl)amino)cyclopentyl)amino)-2H-[1,3′-bipyridin]-2-one], for which the IC50 is 0.436 µM in assay [1], 9.6 µM in assay [2] and greater than 10 µM in assay [3].
`CN1CC(=O)N(c2ccc(N[C@H]3CC[C@H](Nc4cnc(OC(F)F)cn4)C3)nc2)C1=O` [Example 93, 3-(6-(((1S,3S)-3-((5-(Difluoromethoxy)pyrazin-2-yl)amino)cyclopentyl)amino)pyridin-3-yl)-1-methylimidazolidine-2,4-dione]: the IC50 in assay [1] was 0.087 µM; in assay [2], greater than 40 µM; in assay [3], greater than 10 µM.
Consider `COc1ccc(=O)n(-c2ccc(N[C@H]3CC[C@H](Nc4cnc(OC(F)F)cn4)C3)nc2)c1` [Example 95, 6′-(((1S,3S)-3-((5-(Difluoromethoxy)pyrazin-2-yl)amino)cyclopentyl)amino)-5-methoxy-2H-[1,3′-bipyridin]-2-one], for which the IC50 in assay [1] was found to be 0.114 µM; in assay [2] it was 11.1 µM; in assay [3], 0.115 µM.
With `N#Cc1ccc(=O)n(-c2ccc(N[C@H]3CC[C@H](Nc4cnc(Cl)cn4)C3)nc2)c1` [Example 99, 6′-(((1S,3S)-3-((5-Chloropyrazin-2-yl)amino)cyclopentyl)amino)-2-oxo-2H-[1,3′-bipyridine]-5-carbonitrile], the figures for the IC50 in assay [1], in assay [2] and in assay [3] were 0.04 µM, 19.9 µM and greater than 10 µM, respectively.
As to `O=c1ccc(Cl)cn1-c1ccc(N[C@H]2CC[C@H](Nc3cnc(C4CC4)cn3)C2)nc1` [Example 109, 5-Chloro-6′-(((1S,3S)-3-((5-Cyclopropylpyrazin-2-yl)amino)cyclopentyl)amino)-2H-[1,3′-bipyridin]-2-one], the IC50 is 0.041 µM in assay [1], 19.9 µM in assay [2] and greater than 10 µM in assay [3].
As to `N#Cc1ccc(=O)n(-c2ccc(N[C@H]3CC[C@H](Nc4cnc(C5CC5)cn4)C3)nc2)c1` [Example 110, 6′-(((1S,3S)-3-((5-Cyclopropylpyrazin-2-yl)amino)cyclopentyl)amino)-2-oxo-2H-[1,3′-bipyridine]-5-carbonitrile], the IC50 in assay [1] was 0.048 µM; in assay [2], 25.3 µM; in assay [3], greater than 10 µM.
Turning to `CNC(=O)c1cnc(N[C@H]2CC[C@H](Nc3ccc(-n4cccc(Cl)c4=O)cn3)C2)cn1` [Example 149, 5-(((1S,3S)-3-((3-Chloro-2-oxo-2H-[1,3′-bipyridin]-6′-yl)amino)cyclopentyl)amino)-N-methylpyrazine-2-carboxamide], the figures for the IC50 in assay [1], in assay [2] and in assay [3] were 3.96 µM, greater than 40.1 µM and greater than 10 µM, respectively.
Turning to `CSc1cnc(N[C@H]2CC[C@H](Nc3ccc(-n4ccccc4=O)cn3)C2)cn1` [Example 162, 6′-(((1S,3S)-3-((5-(Methylthio)pyrazin-2-yl)amino)cyclopentyl)amino)-2H-[1,3′-bipyridin]-2-one], the IC50 is 0.042 µM in assay [1], greater than 40.1 µM in assay [2] and greater than 10 µM in assay [3].
`CCSc1cnc(N[C@H]2CC[C@H](Nc3ccc(-n4ccccc4=O)cn3)C2)cn1` [Example 163, 6′-(((1S,3S)-3-((5-(Ethylthio)pyrazin-2-yl)amino)cyclopentyl)amino)-2H-[1,3′-bipyridin]-2-one]: the IC50 was 0.14 µM in assay [1], 30.7 µM in assay [2] and greater than 10 µM in assay [3].
For the molecule `COC(=O)CSc1cnc(N[C@H]2CC[C@H](Nc3ccc(-n4ccccc4=O)cn3)C2)cn1` [Example 164, Methyl 2-((5-(((1S,3S)-3-((2-oxo-2H-[1,3′-bipyridin]-6′-yl)amino)cyclopentyl)amino)pyrazin-2-yl)thio)acetate], the IC50 in assay [1] is 0.451 µM; in assay [2], greater than 40.1 µM; in assay [3] it was greater than 10 µM.
Consider `Cc1cnc(N[C@H]2CC[C@H](Nc3ccc(-n4cccc(-c5c[nH]nn5)c4=O)cn3)C2)cn1` [Example 205, 6′-(((1S,3S)-3-((5-Methylpyrazin-2-yl)amino)cyclopentyl)amino)-3-(1H-1,2,3-triazol-4-yl)-2H-[1,3′-bipyridin]-2-one], for which the IC50 is 0.007 µM in assay [1], greater than 40.1 µM in assay [2] and greater than 10 µM in assay [3].
For `Cc1cnc(N[C@H]2CC[C@H](Nc3ccc(-n4cc(-c5cnn(C)c5)ccc4=O)cn3)C2)cn1` [Example 206, 5-(1-Methyl-1H-pyrazol-4-yl)-6′-(((1S,3S)-3-((5-methylpyrazin-2-yl)amino)cyclopentyl)amino)-2H-[1,3′-bipyridin]-2-one] the same measures were 0.022 µM, greater than 40.1 µM and greater than 10 µM.
